Legend:
[1] = Stability study, comparative ubiquinol vs cocrystals: storage in a chamber, periodic analysis for ubiquinone and the form detected; format: physicochemical; conditions: for stability at 25° C. measured by controlling the moment when ubiquinone was detected: "<" ubiquinone detected at least after the indicated days, ">" ubiquinone not detected yet
Experimental: Powder X-Ray diffraction (PXRD) analyses were performed by sandwiching the powder samples between polyester films of 10 micrometres of thickness or polyamide (kapton) films of 15 micrometres of thickness and analysed in a PANalytical X′Pert PRO MPD q/q powder diffractometer of 240 millimetres of radius, in a configuration of convergent beam with a focalizing mirror and a flat sample transmission geometry, in the following experimental conditions: Cu Kα radiation (λ=1.5406 Å); Work power: 45 kV and 40 mA; Incident beam slits defining a beam height of 0.4 millimetres; Incident and diffracted beam 0.02 radians Soller slits; PIXcel detector: Active length=3.347°; 2θ/θ scans from 2 to 40° 2θ with a step size of 0.026° 2θ and a measuring time of 76 seconds per step.
The stability of the different forms has been studied under two experimental conditions. The samples were stored under both conditions inside a Series FD Binder chamber and they were analyzed periodically: • condition A: 25° C. and 57% of relative humidity; • condition B: 40° C. and 75% of relative humidity.
A saturated solution of sodium bromide salt (57% RH) and a saturated solution of sodium chloride (75% RH) were used to control relative humidity.
75% HR by indicating the form detected after the mentioned days. No ubiquinone was detected at least after 14 days.

[2] = as above; format: physicochemical; conditions: relative humidity not controlled, "<" ubiquinone detected at least after the indicated days, ">" ubiquinone not detected yet
[3] = 25° C.-57% HR, 435 days, ^1: low crystallinity
[4] = 40° C.-75% HR, 14 days, "—^1" (footnote *): the sample absorbed moisture showing a liquid texture
[5] = 40° C.-75% HR, 51 days, ^1: low crystallinity

| Molecule | form detected ([1]; 25° C.-57% HR, 7 days) | form detected ([1]; 25° C.-57% HR, 14 days) | form detected ([1]; 25° C.-57% HR, 51 days) | form detected ([1]; 25° C.-57% HR, 119 days) | form detected [1, 3] | form detected ([1]; 25° C.-57% HR, time 0) | form detected ([1]; 40° C.-75% HR, 7 days) | form detected [1, 4] | form detected [1, 5] | form detected ([1]; 40° C.-75% HR, time 0) | stability at 25° C. measured by controlling the moment when ubiquinone was detected ([1]; 25° C.-57% HR) [days] | stability at 25° C. measured by controlling the moment when ubiquinone was detected [2] [days] | other results |
| --- | --- | --- | --- | --- | --- | --- | --- | --- | --- | --- | --- | --- | --- |
| Cocrystal Hydrate of Ubiquinol and 3,4-dihydroxybenzoic Acid [P58-III] | P58-III | P58-III | P58-III | P58-III | P58-III | P58-III | P58-III | P58-III | P58-III | P58-III | – | – | form detected ([1]; 25° C.-57% HR, 84 days): P58-III; form detected ([1]; 25° C.-57% HR, 235 days): P58-III; form detected ([1]; 25° C.-57% HR, 405 days): P58-III; form detected ([1]; 25° C.-57% HR, 551 days, ^1: low crystallinity): P58-III^1; form detected ([1]; 40° C.-75% HR, 235 days): Ubiquinone |
| Ubiquinol [reference compound] | Form A | mixture Form A and Form B | – | – | – | Form A | Form B | – | – | Form A | <26 | <50 | form detected ([1]; 25° C.-57% HR, 26 days): mixture Form B and Ubiquinone; form detected ([1]; 25° C.-57% HR, 37 days): mixture Form B and Ubiquinone; form detected ([1]; 25° C.-57% HR, 62 days, ^2: analyzed by 1H-NMR, confirms presence of Ubiquinone): mixture Form B and Ubiquinone^2; form detected ([1]; 25° C.-57% HR, 130 days): mixture Form B and Ubiquinone; form detected ([1]; 25° C.-57% HR, 300 days): mixture Form B and Ubiquinone; form detected ([1]; 25° C.-57% HR, 446 days): Ubiquinone (low crystallinity) |
| COc1c(O)c(C)c(CC=C(C)CCC=C(C)CCC=C(C)CCC=C(C)CCC=C(C)CCC=C(C)CCC=C(C)CCC=C(C)CCC=C(C)CCC=C(C)C)c(O)c1OC.O=C(O)c1cc(O)cc(O)c1 [P58-V, Cocrystal of Ubiquinol and 3,5-dihydroxybenzoic Acid] | – | – | – | – | – | – | – | – | – | – | – | – | stability ([1]; compared with cocrystal P58-III): expected to be similar to cocrystal P58-III |
| COc1c(O)c(C)c(CC=C(C)CCC=C(C)CCC=C(C)CCC=C(C)CCC=C(C)CCC=C(C)CCC=C(C)CCC=C(C)CCC=C(C)CCC=C(C)C)c(O)c1OC.O=C(O)c1cccc(O)c1 [P58-VI, Cocrystal of Ubiquinol and 3-Hydroxybenzoic Acid] | P58-VI | P58-VI | P58-VI | P58-VI | P58-VI^1 | P58-VI | P58-VI | P58-VI | Ubiquinone^1 | P58-VI | >434 | >64 | form detected ([1]; 25° C.-57% HR, 288 days): P58-VI |
